Assay results reported in patent publication US10758534B2 (Vertex Pharmaceuticals Incorporated, priority 2014, dated 2020).

Target: T1, F508del (Homo sapiens, UniProt P13569, DEL508-508)
T1 construct: expressed in transfected cells
Experiment: Protocol 1: membrane potential optical assay (FLIPR III, voltage sensing dye), identification of potentiator compounds
Assay type: cell-based
Details: Table 3, compounds of Table 1
Summary of the method: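 Membrane potential in forskolin-activated, temperature-rescued F508del NIH 3T3 cells is followed with a voltage-sensing dye on FLIPR III. A chloride ion gradient created at the single addition step provides the driving force, after prior compound treatment.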

T1 sequence (P13569 with tags, fused parts or gaps DEL508-508): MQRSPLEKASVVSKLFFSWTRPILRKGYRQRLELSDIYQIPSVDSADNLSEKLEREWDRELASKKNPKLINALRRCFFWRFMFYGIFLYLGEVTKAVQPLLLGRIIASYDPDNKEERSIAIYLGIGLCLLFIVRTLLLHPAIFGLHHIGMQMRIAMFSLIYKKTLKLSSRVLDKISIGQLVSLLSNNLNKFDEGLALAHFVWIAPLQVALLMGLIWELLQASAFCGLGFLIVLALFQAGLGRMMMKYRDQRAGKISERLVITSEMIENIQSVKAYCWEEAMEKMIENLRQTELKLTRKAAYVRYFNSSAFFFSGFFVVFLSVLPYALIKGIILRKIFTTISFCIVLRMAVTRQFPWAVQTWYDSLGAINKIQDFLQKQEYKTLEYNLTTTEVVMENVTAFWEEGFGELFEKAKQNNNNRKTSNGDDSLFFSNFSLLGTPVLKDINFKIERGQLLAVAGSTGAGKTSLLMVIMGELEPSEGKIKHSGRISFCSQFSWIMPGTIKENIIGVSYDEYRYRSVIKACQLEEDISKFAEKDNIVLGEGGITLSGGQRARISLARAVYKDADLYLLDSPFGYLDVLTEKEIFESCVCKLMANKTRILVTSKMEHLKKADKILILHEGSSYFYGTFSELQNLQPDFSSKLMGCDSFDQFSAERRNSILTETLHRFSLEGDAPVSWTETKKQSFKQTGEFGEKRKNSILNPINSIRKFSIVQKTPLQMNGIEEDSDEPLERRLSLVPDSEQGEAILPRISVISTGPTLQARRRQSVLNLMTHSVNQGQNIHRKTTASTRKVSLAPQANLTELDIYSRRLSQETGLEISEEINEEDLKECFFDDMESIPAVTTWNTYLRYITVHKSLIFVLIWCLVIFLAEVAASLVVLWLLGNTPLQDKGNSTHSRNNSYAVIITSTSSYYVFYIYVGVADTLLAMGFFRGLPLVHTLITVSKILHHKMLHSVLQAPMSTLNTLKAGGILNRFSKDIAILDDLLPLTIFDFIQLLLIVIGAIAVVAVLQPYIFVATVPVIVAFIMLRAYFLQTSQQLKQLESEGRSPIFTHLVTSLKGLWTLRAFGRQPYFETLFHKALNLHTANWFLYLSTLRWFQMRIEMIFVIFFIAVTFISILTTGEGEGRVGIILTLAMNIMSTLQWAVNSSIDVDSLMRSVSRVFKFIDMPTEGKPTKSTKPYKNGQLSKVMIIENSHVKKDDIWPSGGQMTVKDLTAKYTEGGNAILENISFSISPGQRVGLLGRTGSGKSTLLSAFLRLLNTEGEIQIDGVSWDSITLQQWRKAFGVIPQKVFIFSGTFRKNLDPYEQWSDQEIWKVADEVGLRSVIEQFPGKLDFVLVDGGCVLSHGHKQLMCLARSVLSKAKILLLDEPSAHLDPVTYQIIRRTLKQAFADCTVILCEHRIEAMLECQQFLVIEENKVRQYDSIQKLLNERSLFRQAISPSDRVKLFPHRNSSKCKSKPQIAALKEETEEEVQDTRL

Structure (SMILES)	EC30
CC(C)COc1cncc(-c2ccc(C(=O)NS(=O)(=O)c3cccc(N)n3)c(N3[C@H](C)CC[C@@H]3C)n2)c1 [Compound 1224, N-[(6-amino-2-pyridyl)sulfonyl]-2-[(2S,5R)-2,5-dimethylpyrrolidin-1-yl]-6-(5-isobutoxy-3-pyridyl)pyridine-3-carboxamide]	++ (“++” means between 3 uM and 10 uM)
CC(C)COc1cc(F)cc(-c2ccc(C(=O)NS(=O)(=O)c3cccc(N)n3)c(N3CC4C5CCC(C5)C43)n2)c1 (centres unmarked) [Compound 1821, N-[(6-amino-2-pyridyl)sulfonyl]-6-(3-fluoro-5-isobutoxy-phenyl)-2-BLAHyl-pyridine-3-carboxamide]	+++ (“+++” means <3 uM)
CC(C)Oc1ccc(-c2ccc(C(=O)NS(=O)(=O)c3cccc(N)n3)c(N3CCCC3(C)C)n2)cn1 [Compound 834, N-[(6-amino-2-pyridyl)sulfonyl]-2-(2,2-dimethylpyrrolidin-1-yl)-6-(6-isopropoxy-3-pyridyl)pyridine-3-carboxamide]	+++ (“+++” means <3 uM)
CC(C)COc1cc(F)cc(-c2ccc(C(=O)NS(=O)(=O)c3cccc(N)n3)c(OCCc3ccncc3)n2)c1 [Compound 1605, N-[(6-amino-2-pyridyl)sulfonyl]-6-(3-fluoro-5-isobutoxy-phenyl)-2-[2-(4-pyridyl)ethoxy]pyridine-3-carboxamide]	+++ (“+++” means <3 uM)
Cc1cc(C)c(CN2CCc3ccccc3CC2C(=O)NS(=O)(=O)c2cccc(NCCO)n2)c(C)c1 (centres unmarked) [Compound 838, N-[[6-(2-hydroxyethylamino)-2-pyridyl]sulfonyl]-3-[(2,4,6-trimethylphenyl)methyl]-1,2,4,5-tetrahydro-3-benzazepine-4-carboxamide]	++ (“++” means between 3 uM and 10 uM)
CCCCOc1ccc(-c2ccc(C(=O)NS(=O)(=O)c3ccc[nH]c3=O)c(Oc3c(C)cc(C)cc3C)n2)cc1F [Compound 1187, 6-(4-butoxy-3-fluoro-phenyl)-N-[(2-oxo-1H-pyridin-3-yl)sulfonyl]-2-(2,4,6-trimethylphenoxy)pyridine-3-carboxamide]	+++ (“+++” means <3 uM)
Cc1cc(C)c(Oc2cc(-c3cc(F)cc(OCC(C)C)c3)cnc2C(=O)NS(=O)(=O)c2cccc(N)n2)c(C)c1 [Compound 1456, N-[(6-amino-2-pyridyl)sulfonyl]-5-(3-fluoro-5-isobutoxy-phenyl)-3-(2,4,6-trimethylphenoxy)pyridine-2-carboxamide]	+++ (“+++” means <3 uM)
CC1CN(c2ncc(-c3cccc(OC4CCCC4)c3)cc2C(=O)NS(=O)(=O)c2cccc(N)n2)C(C)(C)C1 (centres unmarked) [Compound 1918, N-[(6-amino-2-pyridyl)sulfonyl]-5-[3-(cyclopentoxy)phenyl]-2-(2,2,4-trimethylpyrrolidin-1-yl)pyridine-3-carboxamide]	+++ (“+++” means <3 uM)
COc1ncc(-c2ccc(C(=O)NS(=O)(=O)c3cccnc3OC)c(-c3ccc(C)cc3)n2)cc1C [Compound 861, 6-(6-methoxy-5-methyl-3-pyridyl)-N-[(2-methoxy-3-pyridyl)sulfonyl]-2-(p-tolyl)pyridine-3-carboxamide]	++ (“++” means between 3 uM and 10 uM)
CC(C)COc1cc(F)cc(-c2ccc(C(=O)NS(=O)(=O)c3cccc(N)n3)c(OC3CCCCC3)n2)c1 [Compound 1477, N-[(6-amino-2-pyridyl)sulfonyl]-2-(cyclohexoxy)-6-(3-fluoro-5-isobutoxy-phenyl)pyridine-3-carboxamide]	+++ (“+++” means <3 uM)
CC(C)COc1cc(F)cc(-c2ccc(C(=O)NS(=O)(=O)c3cccc(N)n3)c(N3CCC[C@H]3C(F)(F)F)n2)c1 [Compound 1304, N-[(6-amino-2-pyridyl)sulfonyl]-6-(3-fluoro-5-isobutoxy-phenyl)-2-[(2S)-2-(trifluoromethyl)pyrrolidin-1-yl]pyridine-3-carboxamide]	+++ (“+++” means <3 uM)
CC(C)COc1cc(F)cc(-c2ccc(C(=O)NS(=O)(=O)c3cccc(N)n3)c(OCCCc3ccccc3)n2)c1 [Compound 1694, N-[(6-amino-2-pyridyl)sulfonyl]-6-(3-fluoro-5-isobutoxy-phenyl)-2-(3-phenylpropoxy)pyridine-3-carboxamide]	+++ (“+++” means <3 uM)
COc1ncc(-c2ccc(C(=O)NS(=O)(=O)c3cccc(N)n3)c(N3CCC(C)CC3)n2)cc1C [Compound 863, N-[(6-amino-2-pyridyl)sulfonyl]-6-(6-methoxy-5-methyl-3-pyridyl)-2-(4-methyl-1-piperidyl)pyridine-3-carboxamide]	++ (“++” means between 3 uM and 10 uM)
CCCN(CC1CC1)c1nc(-c2cc(F)cc(OCC(C)C)c2)ccc1C(=O)NS(=O)(=O)c1cccc(N)n1 [Compound 881, N-[(6-amino-2-pyridyl)sulfonyl]-2-[cyclopropylmethyl(propyl)amino]-6-(3-fluoro-5-isobutoxy-phenyl)pyridine-3-carboxamide]	+++ (“+++” means <3 uM)

Results, then the molecule that gave them:

EC30	Structure (SMILES)
+++ (“+++” means <3 uM)	CCOCCOCCOc1ncc(-c2ccc(C(=O)NS(=O)(=O)c3cccnc3N)c(N3C[C@@H](C)CC3(C)C)n2)cc1C [Compound 1783, N-[(2-amino-3-pyridyl)sulfonyl]-6-[6-[2-(2-ethoxyethoxy)ethoxy]-5-methyl-3-pyridyl]-2-[(4S)-2,2,4-trimethylpyrrolidin-1-yl]pyridine-3-carboxamide]
+++ (“+++” means <3 uM)	COc1c(C(C)(C)C)nn(Cc2c(C)cc(C)cc2C)c1C(=O)NS(=O)(=O)c1cccc(N)c1 [Compound 1305, N-(3-aminophenyl)sulfonyl-5-tert-butyl-4-methoxy-2-[(2,4,6-trimethylphenyl)methyl]pyrazole-3-carboxamide]
+ (“+” means greater than 10 uM)	Cc1cc(C)c(Oc2nc(-c3ccccn3)ccc2C(=O)NS(=O)(=O)c2cc[nH]n2)c(C)c1 [Compound 1353, N-(1H-pyrazol-3-ylsulfonyl)-6-(2-pyridyl)-2-(2,4,6-trimethylphenoxy)pyridine-3-carboxamide]
++ (“++” means between 3 uM and 10 uM)	COc1ccc(-c2cc(C(=O)NS(=O)(=O)c3cccc(N)c3)n(C(C)c3ccccc3)n2)cc1 (centres unmarked) [Compound 1024, N-(3-aminophenyl)sulfonyl-5-(4-methoxyphenyl)-2-(1-phenylethyl)pyrazole-3-carboxamide]
+++ (“+++” means <3 uM)	CC1CN(c2ncccc2C(=O)NS(=O)(=O)c2cccc(N3CCC(c4ccccc4)C3)n2)C(C)(C)C1 (centres unmarked) [Compound 1708, N—[[6-(3-phenylpyrrolidin-1-yl)-2-pyridyl]sulfonyl]-2-(2,2,4-trimethylpyrrolidin-1-yl)pyridine-3-carboxamide]
++ (“++” means between 3 uM and 10 uM)	Cc1cc(C)c(Oc2nc(-c3cccc(Cl)c3)ccc2C(=O)NS(=O)(=O)c2ccc[nH]c2=O)c(C)c1 [Compound 1095, 6-(3-chlorophenyl)-N-[(2-oxo-1H-pyridin-3-yl)sulfonyl]-2-(2,4,6-trimethylphenoxy)pyridine-3-carboxamide]
+++ (“+++” means <3 uM)	Cc1cc(C)c(Oc2nc(-c3cccc(OC(C)C)c3)ccc2C(=O)NS(=O)(=O)c2ccc[nH]c2=O)c(C)c1 [Compound 1188, 6-(3-isopropoxyphenyl)-N-[(2-oxo-1H-pyridin-3-yl)sulfonyl]-2-(2,4,6-trimethylphenoxy)pyridine-3-carboxamide]
+++ (“+++” means <3 uM)	Cc1cc(C)c(Oc2nc(-c3ccnn3C(C)C)ccc2C(=O)NS(=O)(=O)c2cccc(N)n2)c(C)c1 [Compound 1317, N-[(6-amino-2-pyridyl)sulfonyl]-6-(2-isopropylpyrazol-3-yl)-2-(2,4,6-trimethylphenoxy)pyridine-3-carboxamide]
+++ (“+++” means <3 uM)	CC(C)Oc1ccc(-c2ccc(C(=O)NS(=O)(=O)c3cccc(N)n3)c(N3CCCC(C(F)(F)F)C3)n2)cn1 (centres unmarked) [Compound 1274, N-[(6-amino-2-pyridyl)sulfonyl]-6-(6-isopropoxy-3-pyridyl)-2-[3-(trifluoromethyl)-1-piperidyl]pyridine-3-carboxamide]
++ (“++” means between 3 uM and 10 uM)	Cc1cc(C)c(Oc2nc(C3CC3)ccc2C(=O)NS(=O)(=O)c2cccc(N)n2)c(C)c1 [Compound 1050, N-[(6-amino-2-pyridyl)sulfonyl]-6-cyclopropyl-2-(2,4,6-trimethylphenoxy)pyridine-3-carboxamide]
++ (“++” means between 3 uM and 10 uM)	CC(C)Oc1cc(-c2ccc(C(=O)NS(=O)(=O)c3ccc[nH]c3=O)c(N3[C@H](C)CC[C@@H]3C)n2)ccc1Cl [Compound 1001, 6-(4-chloro-3-isopropoxy-phenyl)-2-[(2S,5R)-2,5-dimethylpyrrolidin-1-yl]-N-[(2-oxo-1H-pyridin-3-yl)sulfonyl]pyridine-3-carboxamide]
+++ (“+++” means <3 uM)	COc1c(F)cccc1-c1ccc(C(=O)NS(=O)(=O)c2ccc[nH]c2=O)c(N2C[C@@H](C)CC2(C)C)n1 [Compound 1779, 6-(3-fluoro-2-methoxy-phenyl)-N-[(2-oxo-1H-pyridin-3-yl)sulfonyl]-2-[(4S)-2,2,4-trimethylpyrrolidin-1-yl]pyridine-3-carboxamide]
++ (“++” means between 3 uM and 10 uM)	C[C@@H]1CN(c2nc(-c3cc(F)cc(F)c3)ccc2C(=O)NS(=O)(=O)N2CC[C@H](N)C2)C(C)(C)C1 [Compound 1716, N-[(3S)-3-aminopyrrolidin-1-yl]sulfonyl-6-(3,5-difluorophenyl)-2-[(4S)-2,2,4-trimethylpyrrolidin-1-yl]pyridine-3-carboxamide]
+++ (“+++” means <3 uM)	Cc1cc(C)c(Oc2nc(C(C)C)ccc2C(=O)NS(=O)(=O)c2cccc(N)n2)c(C)c1 [Compound 1232, N-[(6-amino-2-pyridyl)sulfonyl]-6-isopropyl-2-(2,4,6-trimethylphenoxy)pyridine-3-carboxamide]
+++ (“+++” means <3 uM)	CC1CN(c2nc(C(C)(C)C)c(-c3ccccc3)cc2C(=O)NS(=O)(=O)c2cccc(N)n2)C(C)(C)C1 (centres unmarked) [Compound 1364, N-[(6-amino-2-pyridyl)sulfonyl]-6-tert-butyl-5-phenyl-2-(2,2,4-trimethylpyrrolidin-1-yl)pyridine-3-carboxamide]
